Laboratory results taken from PubChem BioAssay AID248 (DTP/NCI, 2004).
“And” between values parts separate entries of the source, which are not always exact repeats. Identical values can stand only once. Inconclusive results and toxic doses are left out.

System: L1210 leukemia ip in BDF1 mice, survival T/C
Test: NCI In Vivo Anticancer Drug Screen. Data for tumor model L1210 Leukemia (intraperitoneal) in B6D2F1 (BDF1) mice
Conditions: higher = longer survival
Method in brief: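 Tumor cells were implanted, animals were treated, and survival was followed. The result divides the treated measurement by the vehicle-control measurement.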

[1] = endpoint: mean survival time, dose: 100.0 mg/kg/injection, schedule: Q04DX003 (ip), vehicle: Klucel (hydroxypropylcellulose) (HPC)
[2] = endpoint: mean survival time, dose: 200.0 mg/kg/injection, schedule: Q04DX003 (ip), vehicle: Klucel (hydroxypropylcellulose) (HPC)
[3] = endpoint: mean survival time, dose: 400.0 mg/kg/injection, schedule: Q04DX003 (ip), vehicle: Klucel (hydroxypropylcellulose) (HPC)
[4] = endpoint: mean survival time, dose: 25.0 mg/kg/injection, schedule: Q01DX009 (ip), vehicle: saline
[5] = endpoint: mean survival time, dose: 50.0 mg/kg/injection, schedule: Q01DX009 (ip), vehicle: saline
[6] = endpoint: mean survival time, dose: 50.0 mg/kg/injection, schedule: Q04DX003 (ip), vehicle: saline
[7] = endpoint: mean survival time, dose: 100.0 mg/kg/injection, schedule: Q01DX009 (ip), vehicle: saline
[8] = endpoint: mean survival time, dose: 100.0 mg/kg/injection, schedule: Q04DX003 (ip), vehicle: saline
[9] = endpoint: mean survival time, dose: 200.0 mg/kg/injection, schedule: Q04DX003 (ip), vehicle: saline
[10] = endpoint: mean survival time, dose: 100.0 mg/kg/injection, schedule: Q01DX001 (ip), vehicle: saline
[11] = endpoint: mean survival time, dose: 100.0 mg/kg/injection, schedule: Q04DX003 (ip), vehicle: saline with Tween-80
[12] = endpoint: mean survival time, dose: 200.0 mg/kg/injection, schedule: Q01DX001 (ip), vehicle: saline
[13] = endpoint: mean survival time, dose: 200.0 mg/kg/injection, schedule: Q04DX003 (ip), vehicle: saline with Tween-80
[14] = endpoint: mean survival time, dose: 400.0 mg/kg/injection, schedule: Q01DX001 (ip), vehicle: saline
[15] = endpoint: mean survival time, dose: 400.0 mg/kg/injection, schedule: Q04DX003 (ip), vehicle: saline with Tween-80
[16] = endpoint: mean survival time, dose: 100.0 mg/kg/injection, schedule: Q01DX009 (ip), vehicle: saline with Tween-80
[17] = endpoint: mean survival time, dose: 200.0 mg/kg/injection, schedule: Q01DX009 (ip), vehicle: saline with Tween-80
[18] = endpoint: mean survival time, dose: 100.0 mg/kg/injection, schedule: Q01DX009 (ip), vehicle: Klucel (hydroxypropylcellulose) (HPC)
[19] = endpoint: mean survival time, dose: 200.0 mg/kg/injection, schedule: Q01DX009 (ip), vehicle: Klucel (hydroxypropylcellulose) (HPC)
[20] = endpoint: mean survival time, dose: 400.0 mg/kg/injection, schedule: Q01DX009 (ip), vehicle: Klucel (hydroxypropylcellulose) (HPC)

## O=C(CNC(=O)OCc1ccccc1)NCC(=O)NC(Cc1c[nH]c2ccccc12)C(=O)OCc1ccccc1 (centres undefined)
[1]
  T/C: 100 % of control
[2]
  T/C: 101 % of control
[3]
  T/C: 94 % of control

## CC(C)(C)[O][Pb]([c]1ccccc1)([c]1ccccc1)[c]1ccccc1
endpoint: mean survival time, dose: 1.56 mg/kg/injection, schedule: Q01DX009 (ip), vehicle: saline with Tween-80
  T/C: 91 % of control

## COc1cc(NS(C)(=O)=O)ccc1Nc1c2ccc([N+](=O)[O-])cc2nc2c(C)c(C)ccc12
endpoint: mean survival time, dose: 0.48 mg/kg/injection, schedule: Q01DX009 (ip), vehicle: saline
  T/C: 113 % of control
endpoint: mean survival time, dose: 2.7 mg/kg/injection, schedule: Q01DX009 (ip), vehicle: saline
  T/C: 151 % of control
endpoint: mean survival time, dose: 4.1 mg/kg/injection, schedule: Q01DX009 (ip), vehicle: saline
  T/C: 169 % of control
endpoint: mean survival time, dose: 6.25 mg/kg/injection, schedule: Q01DX009 (ip), vehicle: water
  T/C: 106 % of control
endpoint: mean survival time, dose: 12.5 mg/kg/injection, schedule: Q01DX009 (ip), vehicle: saline
  T/C: 157 % of control
endpoint: mean survival time, dose: 12.5 mg/kg/injection, schedule: Q01DX009 (ip), vehicle: water
  T/C: 116 % of control
endpoint: mean survival time, dose: 22.0 mg/kg/injection, schedule: Q04DX003 (ip), vehicle: saline
  T/C: 114 % of control
endpoint: mean survival time, dose: 25.0 mg/kg/injection, schedule: Q01DX001 (ip), vehicle: water
  T/C: 122 % of control
[4]
  T/C: 102 % of control
endpoint: mean survival time, dose: 25.0 mg/kg/injection, schedule: Q01DX009 (ip), vehicle: water
  T/C: 124 % of control
endpoint: mean survival time, dose: 25.0 mg/kg/injection, schedule: Q01DX009 (sc), vehicle: saline
  T/C: 106 % of control
endpoint: mean survival time, dose: 35.0 mg/kg/injection, schedule: Q04DX003 (ip), vehicle: saline
  T/C: 120 % of control
endpoint: mean survival time, dose: 50.0 mg/kg/injection, schedule: Q01DX009 (sc), vehicle: saline
  T/C: 123 % of control
endpoint: mean survival time, dose: 100.0 mg/kg/injection, schedule: Q01DX009 (sc), vehicle: saline
  T/C: 115 % of control
endpoint: mean survival time, dose: 200.0 mg/kg/injection, schedule: Q01DX009 (sc), vehicle: saline
  T/C: 124 % of control
endpoint: mean survival time, dose: 400.0 mg/kg/injection, schedule: Q01DX009 (ip), vehicle: water
  T/C: 150 % of control

## CC(C)=NOC(C)C(=O)O (centres undefined)
[5]
  T/C: 94 % of control and 101 % of control
[6]
  T/C: 95 % of control
endpoint: mean survival time, dose: 75.0 mg/kg/injection, schedule: Q01DX001 (ip), vehicle: saline
  T/C: 101 % of control and 98 % of control
[7]
  T/C: 91 % of control and 97 % of control
[8]
  T/C: 100 % of control and 98 % of control
endpoint: mean survival time, dose: 150.0 mg/kg/injection, schedule: Q01DX001 (ip), vehicle: saline
  T/C: 103 % of control and 106 % of control
endpoint: mean survival time, dose: 200.0 mg/kg/injection, schedule: Q01DX009 (ip), vehicle: saline
  T/C: 92 % of control and 103 % of control
[9]
  T/C: 97 % of control and 95 % of control
endpoint: mean survival time, dose: 300.0 mg/kg/injection, schedule: Q01DX001 (ip), vehicle: saline
  T/C: 114 % of control

## CCCCCCP(=S)(CCCC)CCCCCC
endpoint: mean survival time, dose: 100.0 mg/kg/injection, schedule: Q04DX002 (ip), vehicle: Klucel (hydroxypropylcellulose) (HPC)
  T/C: 102 % of control
endpoint: mean survival time, dose: 200.0 mg/kg/injection, schedule: Q04DX002 (ip), vehicle: Klucel (hydroxypropylcellulose) (HPC)
  T/C: 102 % of control
endpoint: mean survival time, dose: 400.0 mg/kg/injection, schedule: Q04DX002 (ip), vehicle: Klucel (hydroxypropylcellulose) (HPC)
  T/C: 102 % of control

## S=P(NC1CCCCC1)(NC1CCCCC1)NC1CCCCC1
[10]
  T/C: 95 % of control
[11]
  T/C: 101 % of control
[12]
  T/C: 95 % of control
[13]
  T/C: 97 % of control
[14]
  T/C: 90 % of control
[15]
  T/C: 97 % of control

## Cc1cc(N(CCOS(C)(=O)=O)CCOS(C)(=O)=O)ccc1C=Nc1ccccc1C(=O)O
endpoint: mean survival time, dose: 2.5 mg/kg/injection, schedule: Q04DX003 (ip), vehicle: Klucel (hydroxypropylcellulose) (HPC)
  T/C: 124 % of control
endpoint: mean survival time, dose: 5.0 mg/kg/injection, schedule: Q04DX003 (ip), vehicle: Klucel (hydroxypropylcellulose) (HPC)
  T/C: 113 % of control
endpoint: mean survival time, dose: 10.0 mg/kg/injection, schedule: Q04DX003 (ip), vehicle: Klucel (hydroxypropylcellulose) (HPC)
  T/C: 109 % of control
endpoint: mean survival time, dose: 40.0 mg/kg/injection, schedule: Q04DX003 (ip), vehicle: Klucel (hydroxypropylcellulose) (HPC)
  T/C: 153 % of control

## C1=CCC(OC2CCCCO2)=CC1 (centres undefined)
[16]
  T/C: 96 % of control
[17]
  T/C: 94 % of control
endpoint: mean survival time, dose: 400.0 mg/kg/injection, schedule: Q01DX009 (ip), vehicle: saline with Tween-80
  T/C: 87 % of control

## COC(=O)c1cccc(O)c1
endpoint: mean survival time, dose: 100.0 mg/kg/injection, schedule: Q01DX001 (ip), vehicle: saline with Tween-80
  T/C: 94 % of control
endpoint: mean survival time, dose: 200.0 mg/kg/injection, schedule: Q01DX001 (ip), vehicle: saline with Tween-80
  T/C: 91 % of control
endpoint: mean survival time, dose: 400.0 mg/kg/injection, schedule: Q01DX001 (ip), vehicle: saline with Tween-80
  T/C: 98 % of control

## COc1ccc(OC)c(NC(=S)NC(=O)c2cccc([N+](=O)[O-])c2)c1
[18]
  T/C: 106 % of control
[1]
  T/C: 120 % of control
[19]
  T/C: 106 % of control
[2]
  T/C: 100 % of control
[20]
  T/C: 94 % of control
[3]
  T/C: 97 % of control

## COC(=O)c1cc(C)c(I)c([N+](=O)[O-])c1
[18]
  T/C: 109 % of control
[19]
  T/C: 102 % of control
[20]
  T/C: 98 % of control

## c1ccc2cc(CCSSCCc3ccc4ccccc4c3)ccc2c1
[12]
  T/C: 87 % of control

## S=C(S)N1CCN(C(=S)S)CC1
[4]
  T/C: 108 % of control
[5]
  T/C: 103 % of control
[7]
  T/C: 92 % of control and 102 % of control
[8]
  T/C: 99 % of control
[9]
  T/C: 97 % of control

## CC(C)(C)C1CCC(S(=O)(=O)c2ccccc2)C(Cl)C1 (centres undefined)
[18]
  T/C: 102 % of control
[8]
  T/C: 102 % of control
[19]
  T/C: 104 % of control
[9]
  T/C: 96 % of control
[20]
  T/C: 104 % of control
endpoint: mean survival time, dose: 400.0 mg/kg/injection, schedule: Q04DX003 (ip), vehicle: saline
  T/C: 93 % of control

## O=C1CC(=O)C(Cl)=C1Cl
endpoint: mean survival time, dose: 15.0 mg/kg/injection, schedule: Q01DX001 (ip), vehicle: carboxymethylcellulose (CMC)
  T/C: 93 % of control

## COc1cc([N+](=O)[O-])c2c(ccc[n+]2C)c1OC
[11]
  T/C: 98 % of control
[13]
  T/C: 89 % of control

## O=[N+]([O-])c1ccc(N/N=C/c2ccnc3ccccc23)cc1
[18]
  T/C: 93 % of control
[19]
  T/C: 91 % of control
[20]
  T/C: 91 % of control

## CN(C)C1C(=O)C(C(N)=O)=C(O)C2(O)C(=O)C3=C(O)c4c(O)cccc4C(C)(O)C3CC12 (centres undefined)
[10]
  T/C: 94 % of control
[12]
  T/C: 96 % of control
[14]
  T/C: 100 % of control
endpoint: median survival time, dose: 20.0 mg/kg/injection, schedule: Q04DX003 (ip), vehicle: water
  T/C: 103 % of control and 105 % of control
endpoint: median survival time, dose: 40.0 mg/kg/injection, schedule: Q04DX003 (ip), vehicle: water
  T/C: 97 % of control and 100 % of control
endpoint: median survival time, dose: 80.0 mg/kg/injection, schedule: Q04DX003 (ip), vehicle: water
  T/C: 97 % of control and 100 % of control
endpoint: median survival time, dose: 160.0 mg/kg/injection, schedule: Q04DX003 (ip), vehicle: water
  T/C: 105 % of control and 111 % of control

## N#CSc1c[nH]c2ccccc12
endpoint: mean survival time, dose: 50.0 mg/kg/injection, schedule: Q01DX009 (ip), vehicle: saline with Tween-80
  T/C: 96 % of control
[16]
  T/C: 101 % of control
[11]
  T/C: 104 % of control
[13]
  T/C: 95 % of control

## CC(C)c1cc(C(C)C)c(C(=O)Oc2c(Br)cc(Br)cc2Br)c(C(C)C)c1
[16]
  T/C: 95 % of control
[11]
  T/C: 98 % of control
[17]
  T/C: 92 % of control
[13]
  T/C: 93 % of control
[15]
  T/C: 90 % of control

## CC1CN1CCC(=O)Nc1ccc(Cl)c(Cl)c1 (centres undefined)
endpoint: mean survival time, dose: 50.0 mg/kg/injection, schedule: Q04DX003 (ip), vehicle: Klucel (hydroxypropylcellulose) (HPC)
  T/C: 97 % of control
[1]
  T/C: 105 % of control
[2]
  T/C: 100 % of control
[3]
  T/C: 106 % of control

## O=S1(=O)C=C(Cl)C(Cl)C1 (centres undefined)
[4]
  T/C: 93 % of control
[5]
  T/C: 86 % of control
[6]
  T/C: 95 % of control
[10]
  T/C: 93 % of control
[8]
  T/C: 92 % of control
[12]
  T/C: 102 % of control

## NC(N)=N/N=C/c1cccc([N+](=O)[O-])c1
endpoint: mean survival time, dose: 15.0 mg/kg/injection, schedule: Q01DX Z (ip), vehicle: carboxymethylcellulose (CMC)
  T/C: 98 % of control
endpoint: mean survival time, dose: 30.0 mg/kg/injection, schedule: Q01DX Z (ip), vehicle: carboxymethylcellulose (CMC)
  T/C: 93 % of control
endpoint: mean survival time, dose: 60.0 mg/kg/injection, schedule: Q01DX Z (ip), vehicle: carboxymethylcellulose (CMC)
  T/C: 90 % of control
